Assay results reported in patent publication US20180072944A1, “Stannous Fluorescent Probe” (priority 2016, published 2018).

Legend:
[1] = pH titration of fluorescence; format: physicochemical; conditions: 10 μM in PBS, emission 580 nm, excitation 560 nm
Experimental: pH titration of Compounds R1 and R2 is described. Stock solutions of Compounds R1 and R2 are respectively added to sodium phosphate buffers of various pH to a final concentration of 10 μM. The fluorescence emission spectra are recorded as a function of pH using λex at 560 nm. The titration curves are plotted by fluorescence emission intensities at 580 nm versus pH.
The impact of pH values on fluorescence is described. The pirolactam ring of the rhodamine derivatives will open in a certain pH range and indicates the fluorescence of rhodamine. It is therefore necessary to check the fluorescence properties of Compounds R1 and R2 in solutions with different pH values. Furthermore, in the cell, the acidity of different organelles may vary greatly. For example, the normal pH of lysosomes is 4.5-5.5, which may induce ring opening of R1 or R2. Considering the application of Sn^2+ probe R1 and R2 intracellular or extracellular may be disturbed by the pH, the acid-base titration experiments are carried out by adjusting the pH with an aqueous solution of NaOH and HCl in Phosphate-Buffered Saline (“PBS”) (FIG. 2 a and b). […] It is predicted that R1 will be turned on by lysosomes in cell without Sn^2+ present. FIGS. 2a and 2b show the dependence of fluorescence at 580 nm of comparative Compound R1 and inventive Compound R2 (10 μM) at different pH in PBS solution. Excitation was at 560 nm.

[2] = test system: Streptococcus mutans (ATCC® 700610™); assay: Fluorescence imaging of Sn^2+ in bacteria (confocal); format: cell-based; conditions: for fluorescence change in Streptococcus mutans after incubation with Sn^2+: 10 μM probe 60 min at 37° C., then 50 μM Sn^2+; for fluorescence in Streptococcus mutans without Sn^2+ present: 10 μM probe, 37° C., 60 min, no Sn^2+
Experimental: Cell culture preparation is described. The KB cell line was provided by of Biochemistry and Cell Biology (China). Cells are grown in MEM (Modified Eagle's Medium) supplemented with 10% FBS (Fetal Bovine serum) and 5% CO2 at 37° C. Cell ([…]) are plated on […] glass coverslips and allowed to adhere for 24 hours. The Streptococcus mutans (ATCC® 700610™) is prepared by inoculating the single colony from the BHI (Brain-Heart Infusion) agar plate into 5 mL BHI broth and incubating at 37° C. for 48 h.
For fluorescence imaging of Sn^2+ in bacteria is described. Freshly diluted Streptococcus mutans (ATCC® 700610™) is sub cultured in the presence of the 10 μM Compound R1 or R2, separately at 37° C. on a shaker bed at 400 rpm for 60 min. Then the bacteria are collected by centrifugation at 8,000 rpm for 2 min and rinsed with Saline (pH=7.0). The process is repeated three times before imaging. After washing with Saline (2 mL×3) to remove the excess probes, the bacteria is cultured in the presence of the 50 μM SnF2 at 37° C. on a shaker bed at 400 rpm for 60 min. Then the bacteria are collected by centrifugation at 8,000 rpm for 2 min and rinsed with Saline (pH=7.0). The process was repeated three times before imaging. The light source is at =543 nm provided excitation and emission are collected in the range=560-660 nm.
Turning to FIGS. 5a and 5b, fluorescence imaging of Sn^2+ in bacteria is described. FIGS. 5a and 5b show simplified illustrations derived based upon CLSM. The illustrations are not drawn to scale but rather enlarged for illustrative purposes. It has been reported that Sn^2+ can inhibit metabolism of Streptococcus mutans. The practical applicability of Compounds R1 and R2 as a Sn^2+ probe in the fluorescence imaging of living Streptococcus mutans (ATCC® 700610™) are investigated. Firstly, the Streptococcus mutans (ATCC® 700610™) are separately stained with 10 μM Compound R1 or R2 at 37° C. for 60 min.
FIGS. 5a and 5b show simplified illustrations derived based upon CLSM images of Streptococcus mutans (ATCC® 700610™). The illustrations are not drawn to scale but rather enlarged for illustrative purposes. (a1-c1) and (a2-c2) Cells are separately incubated with 10 μM comparative Compound R1 and inventive Compound R2 for 30 min, (d1-f1) and (d2-f2) followed incubated with 50 μM SnF2 for 30 min. Emission is collected in red channel at 560-660 nm (b1, e1, b2, e2); a1, d1, a2, d2 are bright field images and c1, f1, c2, f2 are overlay images, respectively (λex=543 nm).

[3] = Metal ion sensing: fluorescence titration and selectivity experiments; format: physicochemical; conditions: for fluorescence at 580 nm upon addition of Sn^2+ / selectivity: metal ions that turn on fluorescence / fluorescence of probe solution without metal ion: 20 μM in ethanol-water (1:1, v/v, pH 7.04); for fluorescence at 580 nm upon addition of Sn^2+: Sn^2+ 0-20 eq; for fluorescence at 580 nm upon addition of Sn^2+ / selectivity: metal ions that turn on fluorescence / fluorescence enhancement with other transition and heavy metal ions: excitation 560 nm; for fluorescence of probe solution without metal ion: no Sn^2+; for fluorescence enhancement with other transition and heavy metal ions: K^+, Ag^+, Ca^2+, Mg^2+, Zn^2+, Pb^2+, Ni^2+, Mn^2+, Co^2+, Cd^2+, Hg^2+, 20 μM probe
Experimental: The procedure for metal ion sensing is described. Solutions of the metal ions (10.0 mM) are prepared in deionized water. […] Sn^2+ stock solution is added into the quartz optical cell gradually by micro-pipette. Spectral data is recorded at 5 min after addition. […] For fluorescence measurements, excitation is provided at 560 nm, while emission is collected from 565 to 700 nm. Metal ion response is described. Fluorescent ‘turn on’ probe is conducive for detection target. […] High-level selectivity is of paramount importance for an excellent chemosensor. […] Metal ion response of R1 and R2 are suited for detection of Sn^2+ in living Streptococcus mutans cells.

[4] = test system: lysosomes of KB cells; assay: Colocalization experiment with LysoTracker Green DND in KB cells; format: cell-based; conditions: 50 μM Sn^2+, 10 μM probe, 1 μM LysoTracker Green DND, 30 min each
Experimental: Colocalization experiments are described. 50 μM SnF2 in the culture media is added to the cells. The cells are incubated at 37° C. for 30 min, and washed with PBS three times to remove the excess SnF2. After washing with PBS (2 mL×3) to remove the excess SnF2, the cells are treated with 10 μM of Compound R1 or R2 separately for 30 min, and washed with PBS three times to remove the excess probe and bathed in PBS (2 mL) before imaging. Cell imaging is then carried out as the former. After washing with PBS (2 mL×3) to remove the excess probes, the cells were treated with 1.0 μM LysoTracker® Green DND at 37° C. for 30 min. Cell imaging is then carried out as the former.
Firstly, the KB cells are stained with 50 μM Sn^2+ at 37° C. for 30 min, and then separately incubated with 10 μM of Compound R1 and 1 μM LysoTracker® Green DND or Compound R2 and 1 μM LysoTracker® Green DND under the same conditions. […] There is no fluorescence in other intracellular sites. […] This may be a transmission path of Sn. […] Many pharmaceutical agents, including various large and small molecules, must be delivered specifically to particular cell organelles in order to efficiently exert their therapeutic action. Such delivery is still mainly an unresolved problem, but targeting detection is helpful attempt. […]

Compound	pH range for inducing fluorescence turning on [1]	fluorescence change in Streptococcus mutans after incubation with Sn^2+ [2]	fluorescence in Streptococcus mutans without Sn^2+ present [2]	fluorescence at 580 nm upon addition of Sn^2+ [3]	selectivity: metal ions that turn on fluorescence [3]	fluorescence of probe solution without metal ion [3]	fluorescence enhancement with other transition and heavy metal ions [3]	colocalization of probe fluorescence with LysoTracker Green DND [4]
CCN(CC)c1ccc2c(c1)Oc1cc(N(CC)CC)ccc1C21c2ccccc2C(=O)N1NC(=O)OC(C)(C)C [Compound R2]	2-4.5 pH	significant fluorescence increasing	no fluorescence emission	turned on and grown drastically	tuning on just in the presence of Sn^2+ and Cr^3+	non-fluorescent	minimal enhancement	overlap with LysoTracker® Green DND very well
Spiro[1H-isoindole-1,9′-[9H]xanthen]-3(2H)-one, 2-[2-[bis(2-hydroxyethyl)amino]amino]ethyl]-3′,6′-bis(diethylamino) [Compound R1]	2.5-6 pH	significant fluorescence increasing	no fluorescence emission	turned on and grown drastically	tuning on just in the presence of Sn^2+ and Cr^3+	non-fluorescent	minimal enhancement	overlap with LysoTracker® Green DND very well
